Results as given in patent US20240158446A1, “CYCLIC COMPOUND HAVING SELECTIVE INHIBITORY ACTION ON KRAS OVER HRAS AND NRAS” (CHUGAI SEIYAKU KABUSHIKI KAISHA, priority 2021, published 2024).
Where a SMILES comes first, the peptide text is derived from it. Bridges are numbered along the chain shown (N, C = ends). [ ]: non-standard residue; d: D form. The star is where a group is joined. hPhe(3-Cl-4-CF3) = N[C@@H](CCc1ccc(C(F)(F)F)c(Cl)c1)C(=O)O; NPrPhe(4-CF3) = CCCN[C@@H](Cc1ccc(C(F)(F)F)cc1)C(=O)O; Abu(4,4,4-F3) = N[C@@H](CC(F)(F)F)C(=O)O; Morpholine(3S-CO) = O=C(O)[C@@H]1COCCN1; Pip(4,4-F2) = O=C(O)[C@@H]1CC(F)(F)CCN1; NMeGly(cPent) = CN[C@H](C(=O)O)C1CCCC1; Gly(cPent) = N[C@H](C(=O)O)C1CCCC1; Hyp = O=C(O)[C@@H]1C[C@@H](O)CN1; Gly(cBu) = N[C@H](C(=O)O)C1CCC1; NMeD = CN[C@@H](CC(=O)O)C(=O)O; NMeL = CN[C@@H](CC(C)C)C(=O)O; hPip = O=C(O)[C@@H]1CCCCCN1; Pip = O=C(O)[C@@H]1CCCCN1; Morpholide = C1CN(*)CCO1; NMeA = CN[C@@H](C)C(=O)O; Ac5c = NC1(C(=O)O)CCCC1; Aze = O=C(O)[C@@H]1CCN1; NPrGly = CCCNCC(=O)O; NEtG = CCNCC(=O)O; Sar = CNCC(=O)O

Experiments:
[1] = target: GDP-bound NRAS wild-type protein (Homo sapiens, UniProt P01111); test: Binding to NRAS by surface plasmon resonance (SPR), Single Cycle Kinetics; details: SPR, GDP-bound NRAS wild-type protein vs GDP-bound KRAS wild-type protein
[2] = target: GDP-bound HRAS wild-type protein (Homo sapiens, UniProt P01112); test: Binding to HRAS by surface plasmon resonance (SPR), Single Cycle Kinetics; details: SPR, GDP-bound HRAS wild-type protein vs GDP-bound KRAS wild-type protein
[3] = target: GDP-bound KRAS wild-type protein (Homo sapiens, UniProt P01116); test: Binding to KRAS by surface plasmon resonance (SPR), Single Cycle Kinetics; details: SPR Single Cycle Kinetics, GDP-bound KRAS wild-type protein, 1:1 binding model; read-out: KRAS KD
Chain of GDP-bound KRAS wild-type protein (P01116 whole entry): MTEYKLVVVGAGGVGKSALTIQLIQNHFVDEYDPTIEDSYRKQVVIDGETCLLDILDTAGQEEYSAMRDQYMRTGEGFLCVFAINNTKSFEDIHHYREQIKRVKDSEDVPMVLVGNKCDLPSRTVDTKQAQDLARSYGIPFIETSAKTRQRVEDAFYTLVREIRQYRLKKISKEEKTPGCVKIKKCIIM

Chain of GDP-bound HRAS wild-type protein (P01112 whole entry): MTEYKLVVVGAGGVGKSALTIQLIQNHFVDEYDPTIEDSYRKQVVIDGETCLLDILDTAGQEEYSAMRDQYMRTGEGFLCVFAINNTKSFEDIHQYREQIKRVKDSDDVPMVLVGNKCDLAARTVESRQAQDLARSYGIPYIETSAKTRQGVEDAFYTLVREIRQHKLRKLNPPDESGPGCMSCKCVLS
Chain of GDP-bound NRAS wild-type protein (P01111 whole entry): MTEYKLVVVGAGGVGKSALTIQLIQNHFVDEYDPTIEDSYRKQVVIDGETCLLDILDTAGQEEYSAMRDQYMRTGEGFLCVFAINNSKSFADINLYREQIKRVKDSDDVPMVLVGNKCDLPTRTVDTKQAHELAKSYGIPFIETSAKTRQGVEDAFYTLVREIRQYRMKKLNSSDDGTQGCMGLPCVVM

SMILES	NRAS/KRAS (ratio of KD value for NRAS to KD value for KRAS) [1]	HRAS/KRAS (ratio of KD value for HRAS to KD value for KRAS) [2]	Kd [3] [nM]
CCCN1C(=O)[C@@H]2CCN2C(=O)[C@H](C)N(C)C(=O)[C@H]([C@@H](C)CC)NC(=O)[C@H](CC(C)C)N(C)C(=O)C[C@@H](C(=O)N2CCOCC2)N(C)C(=O)[C@H](C2CCCC2)N(C)C(=O)C2(CCCC2)NC(=O)[C@@H]2C[C@@H](OC)CN2C(=O)[C@H](CCc2ccc(C(F)(F)F)c(Cl)c2)NC(=O)CN(C)C(=O)[C@@H]1Cc1ccc(C(F)(F)F)cc1 [PP0283] ([NMeL]I[NMeA][Aze][NPrPhe(4-CF3)][Sar][hPhe(3-Cl-4-CF3)][Hyp](Me)[Ac5c][NMeGly(cPent)][NMeD]-Morpholide; lactam N-11)	C (A compound having a KD ratio of 0.1 or more and less than 3 is denoted as C)	C (A compound having a KD ratio of 0.1 or more and less than 3 is denoted as C)	0.063
CCCN1C(=O)[C@@H]2CCN2C(=O)[C@H](C)N(C)C(=O)[C@H]([C@@H](C)CC)NC(=O)[C@H](CC(C)C)N(C)C(=O)C[C@@H](C(=O)N2CCOCC2)N(C)C(=O)[C@H](C2CCCC2)N(C)C(=O)C2(CCCC2)NC(=O)[C@@H]2CCCCN2C(=O)[C@H](CCc2ccc(C(F)(F)F)c(Cl)c2)NC(=O)CN(C)C(=O)[C@@H]1Cc1ccc(C(F)(F)F)cc1 [PP0284] ([NMeL]I[NMeA][Aze][NPrPhe(4-CF3)][Sar][hPhe(3-Cl-4-CF3)][Pip][Ac5c][NMeGly(cPent)][NMeD]-Morpholide; lactam N-11)	C (A compound having a KD ratio of 0.1 or more and less than 3 is denoted as C)	B (a compound having 3 or more and less than 10 is denoted as B)	0.67
CCCN1C(=O)[C@@H]2CCN2C(=O)[C@H](C)N(C)C(=O)[C@H]([C@@H](C)CC)NC(=O)[C@H](CC(C)C)N(C)C(=O)C[C@@H](C(=O)N2CCOCC2)N(C)C(=O)[C@H](C2CCCC2)N(C)C(=O)C2(CCCC2)NC(=O)[C@@H]2CC(F)(F)CCN2C(=O)[C@H](CCc2ccc(C(F)(F)F)c(Cl)c2)NC(=O)CN(C)C(=O)[C@@H]1Cc1ccc(C(F)(F)F)cc1 [PP0285] ([NMeL]I[NMeA][Aze][NPrPhe(4-CF3)][Sar][hPhe(3-Cl-4-CF3)][Pip(4,4-F2)][Ac5c][NMeGly(cPent)][NMeD]-Morpholide; lactam N-11)	C (A compound having a KD ratio of 0.1 or more and less than 3 is denoted as C)	B (a compound having 3 or more and less than 10 is denoted as B)	0.75
CCCN1C(=O)[C@@H]2CCN2C(=O)[C@H](C)N(C)C(=O)[C@H]([C@@H](C)CC)NC(=O)[C@H](CC(C)C)N(C)C(=O)C[C@@H](C(=O)N2CCOCC2)N(C)C(=O)[C@H](C2CCCC2)N(C)C(=O)C2(CCCC2)NC(=O)[C@@H]2COCCN2C(=O)[C@H](CCc2ccc(C(F)(F)F)c(Cl)c2)NC(=O)CN(C)C(=O)[C@@H]1Cc1ccc(C(F)(F)F)cc1 [PP0286] ([NMeL]I[NMeA][Aze][NPrPhe(4-CF3)][Sar][hPhe(3-Cl-4-CF3)][Morpholine(3S-CO)][Ac5c][NMeGly(cPent)][NMeD]-Morpholide; lactam N-11)	C (A compound having a KD ratio of 0.1 or more and less than 3 is denoted as C)	B (a compound having 3 or more and less than 10 is denoted as B)	0.52
CCCN1C(=O)[C@@H]2CCN2C(=O)[C@H](C)N(C)C(=O)[C@H]([C@@H](C)CC)NC(=O)[C@H](CC(C)C)N(C)C(=O)C[C@@H](C(=O)N2CCOCC2)N(C)C(=O)[C@H](C2CCCC2)N(C)C(=O)C2(CCCC2)NC(=O)CN(C)C(=O)[C@H](CCc2ccc(C(F)(F)F)c(Cl)c2)NC(=O)CN(C)C(=O)[C@@H]1Cc1ccc(C(F)(F)F)cc1 [PP0287] ([NMeL]I[NMeA][Aze][NPrPhe(4-CF3)][Sar][hPhe(3-Cl-4-CF3)][Sar][Ac5c][NMeGly(cPent)][NMeD]-Morpholide; lactam N-11)	C (A compound having a KD ratio of 0.1 or more and less than 3 is denoted as C)	C (A compound having a KD ratio of 0.1 or more and less than 3 is denoted as C)	0.26
CCCN1CC(=O)NC2(CCCC2)C(=O)N(C)[C@@H](C2CCCC2)C(=O)N(C)[C@H](C(=O)N2CCOCC2)CC(=O)N(C)[C@@H](CC(C)C)C(=O)N[C@@H]([C@@H](C)CC)C(=O)N(C)[C@@H](C)C(=O)N2CC[C@H]2C(=O)N(CCC)[C@@H](Cc2ccc(C(F)(F)F)cc2)C(=O)N(C)CC(=O)N[C@@H](CCc2ccc(C(F)(F)F)c(Cl)c2)C1=O [PP0288] ([NMeL]I[NMeA][Aze][NPrPhe(4-CF3)][Sar][hPhe(3-Cl-4-CF3)][NPrGly][Ac5c][NMeGly(cPent)][NMeD]-Morpholide; lactam N-11)	C (A compound having a KD ratio of 0.1 or more and less than 3 is denoted as C)	B (a compound having 3 or more and less than 10 is denoted as B)	0.42
CCCN1C(=O)CN(C)C(=O)CN(CC)C(=O)[C@H]([C@@H](C)CC)NC(=O)[C@@H]2CCCCCN2C(=O)C[C@@H](C(=O)N2CCOCC2)N(C)C(=O)[C@H](C2CCCC2)N(C)C(=O)C2(CCCC2)NC(=O)[C@@H]2CCCN2C(=O)[C@H](CCc2ccc(C(F)(F)F)c(Cl)c2)NC(=O)CN(C)C(=O)[C@@H]1Cc1ccc(C(F)(F)F)cc1 [PP0289] ([hPip]I[NEtG][Sar][NPrPhe(4-CF3)][Sar][hPhe(3-Cl-4-CF3)]P[Ac5c][NMeGly(cPent)][NMeD]-Morpholide; lactam N-11)	B (a compound having 3 or more and less than 10 is denoted as B)	B (a compound having 3 or more and less than 10 is denoted as B)	2.2
CCCN1C(=O)CN(C)C(=O)CN(CC)C(=O)[C@H](CC(F)(F)F)NC(=O)[C@H](CC(C)C)N(C)C(=O)C[C@@H](C(=O)N2CCOCC2)N(C)C(=O)[C@H](C2CCCC2)N(C)C(=O)C2(CCCC2)NC(=O)[C@@H]2CCCN2C(=O)[C@H](CCc2ccc(C(F)(F)F)c(Cl)c2)NC(=O)CN(C)C(=O)[C@@H]1Cc1ccc(C(F)(F)F)cc1 [PP0291] ([NMeL][Abu(4,4,4-F3)][NEtG][Sar][NPrPhe(4-CF3)][Sar][hPhe(3-Cl-4-CF3)]P[Ac5c][NMeGly(cPent)][NMeD]-Morpholide; lactam N-11)	B (a compound having 3 or more and less than 10 is denoted as B)	B (a compound having 3 or more and less than 10 is denoted as B)	2.2
CCCN1C(=O)CN(C)C(=O)CN(CC)C(=O)[C@H](C2CCC2)NC(=O)[C@H](CC(C)C)N(C)C(=O)C[C@@H](C(=O)N2CCOCC2)N(C)C(=O)[C@H](C2CCCC2)N(C)C(=O)C2(CCCC2)NC(=O)[C@@H]2CCCN2C(=O)[C@H](CCc2ccc(C(F)(F)F)c(Cl)c2)NC(=O)CN(C)C(=O)[C@@H]1Cc1ccc(C(F)(F)F)cc1 [PP0292] ([NMeL][Gly(cBu)][NEtG][Sar][NPrPhe(4-CF3)][Sar][hPhe(3-Cl-4-CF3)]P[Ac5c][NMeGly(cPent)][NMeD]-Morpholide; lactam N-11)	B (a compound having 3 or more and less than 10 is denoted as B)	C (A compound having a KD ratio of 0.1 or more and less than 3 is denoted as C)	0.54
CCCN1C(=O)CN(C)C(=O)CN(CC)C(=O)[C@H](C2CCCC2)NC(=O)[C@H](CC(C)C)N(C)C(=O)C[C@@H](C(=O)N2CCOCC2)N(C)C(=O)[C@H](C2CCCC2)N(C)C(=O)C2(CCCC2)NC(=O)[C@@H]2CCCN2C(=O)[C@H](CCc2ccc(C(F)(F)F)c(Cl)c2)NC(=O)CN(C)C(=O)[C@@H]1Cc1ccc(C(F)(F)F)cc1 [PP0293] ([NMeL][Gly(cPent)][NEtG][Sar][NPrPhe(4-CF3)][Sar][hPhe(3-Cl-4-CF3)]P[Ac5c][NMeGly(cPent)][NMeD]-Morpholide; lactam N-11)	B (a compound having 3 or more and less than 10 is denoted as B)	C (A compound having a KD ratio of 0.1 or more and less than 3 is denoted as C)	0.84
CCCN1C(=O)CN(C)C(=O)CN(CC)C(=O)[C@H]([C@@H](C)CC)NC(=O)[C@H](CC(C)C)N(C)C(=O)C[C@@H](C(=O)N2CCOCC2)N(C)C(=O)[C@H](C2CCCC2)N(C)C(=O)C2(CCCC2)NC(=O)[C@@H]2CCN2C(=O)[C@H](CCc2ccc(C(F)(F)F)c(Cl)c2)NC(=O)CN(C)C(=O)[C@@H]1Cc1ccc(C(F)(F)F)cc1 [PP0294] ([NMeL]I[NEtG][Sar][NPrPhe(4-CF3)][Sar][hPhe(3-Cl-4-CF3)][Aze][Ac5c][NMeGly(cPent)][NMeD]-Morpholide; lactam N-11)	B (a compound having 3 or more and less than 10 is denoted as B)	C (A compound having a KD ratio of 0.1 or more and less than 3 is denoted as C)	1.7
